The values below come from patent publication US10889553B2, “Asymmetric triazole benzamide derivatives and the compositions and methods of treatment regarding the same” (NysnoBio Ireland DAC, priority 2017, dated 2021).

Data set [1] in a line: Microsomal stability assay, rat liver microsomes. Type of data set: in vitro ADME. To be noted: pH 7.4; rat liver microsomes 1.0 mg/mL, 1 μM compound, NADPH; read-out: RLM t1/2. In outline:
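Compound at 1 μM final (1% DMSO) was incubated with rat or human liver microsomes (1.0 mg/mL) in 50 mM KH2PO4 pH 7.4, started with NADPH. Parent remaining at 0, 15, 30 and 60 min was measured by LC-MS/MS. kobs came from ln(% remaining) versus time, and T1/2=[…]/kobs.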
On the technique in general: Liver microsomes are a subcellular fraction often used to study metabolism.

In a further data set the test system is A549 (lung). Put plainly: Cancer cell proliferation assay (acid phosphatase). It is filed as cell-based. To be noted: Homo sapiens. In outline:
(§1)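 Cells seeded at 4×10^4 cells/ml were incubated overnight at 37° C., 5% CO2, then exposed to compound at varying concentrations in triplicate for 72 hrs. Proliferation was read by acid phosphatase assay (p-nitrophenol phosphate, pH 5.5, 2 hours, 405 nm minus 620 nm) as percent inhibition versus DMSO controls.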

For a further data set, the system named is Calu-6 (lung). Put plainly: Cancer cell proliferation assay (acid phosphatase). Type of data set: cell-based. To be noted: Homo sapiens, Table 6A, 72 hrs, read-out: Calu6 IC50. In outline:
as §1

A further data set deals with LS-174T (colon). Put plainly: Cancer cell proliferation assay (acid phosphatase). It is filed as cell-based. To be noted: Homo sapiens, LS174T; Table 6A; 72 hrs. The method in brief: as §1
The subject of another data set is TOV-21G (ovarian). Put plainly: Cancer cell proliferation assay (acid phosphatase). Type of data set: cell-based. To be noted: Homo sapiens, TOV21G. The method in brief: as §1
Data set [2] is described as follows: Microsomal stability assay, human liver microsomes. Type of data set: in vitro ADME. To be noted: pH 7.4; human liver microsomes 1.0 mg/mL, 1 μM compound, NADPH; read-out: HLM t1/2. As for the experimental part: Compounds were also tested for metabolic stability in both rat liver microsomes (RLM) and the compounds are tested for human liver microsomes (HLM) and their half-life is calculated (See Tables 5A and 5B). The assay was performed as follows. The total volume for each incubation was 250 μL. A 100 μM DMSO solution of compound (diluted from 10 mM stock solution) was spiked into 50 mM KH2PO4 (pH 7.4) buffer containing liver microsome at a concentration of 1.0 mg/mL. The reaction was initiated by the addition of 50 μL of 1 mM NADPH. The final concentration of each compound was 1 μM (1% DMSO). The positive controls, phenacetin for CYP1A2, diclofenac for CYP2C9, omeprazole for CYP2C19, dextromethorphan for CYP2D6 and midazolam for CYP3A4 were added to a separate tube with the final substrate concentrations of 1 μM (1% DMSO) for evaluating the enzyme activities in the liver microsomes. At 0, 15, 30 and 60 min, an aliquot of 15 μL reaction mixtures were removed and 200 μL of methanol (with internal standard of 25 ng/mL propranolol) was added to quench the reaction. The resulting mixture was centrifuged and supernatant was used for LC-MS/MS analysis.
The signals for each compound, or the metabolites for the probe substrates and the internal standard were integrated and the peak area ratios to internal standard were generated. Percent parent remaining at a specified timepoint was calculated based on the peak area ratios at time 0 (as 100%) for in vitro metabolic stability studies in liver microsome and hepatocyte. The observed rate constant (kobs) for the metabolism of substrates was calculated by plotting the natural log of percentage substrate remaining versus time of incubation with the slope being kobs. The half-life (T1/2) was calculated according to the following equation: T1/2=[…]

Another data set relates to HCT-116 (colon). Put plainly: Cancer cell proliferation assay (acid phosphatase). To be noted: Homo sapiens. It is filed as cell-based. In outline:
as §1

The next data set deals with 5-HT transporter (h) (Homo sapiens, UniProt P31645). Put plainly: Selectivity screen, radioligand displacement. Type of data set: binding. To be noted: read-out: % Inhib 5-HT transporter (h). From the text:
(§2) If the % inhibition is less than 50%, the test compounds is consider to have no effect.
Background: Displacement assays read how much labelled ligand stays bound in the presence of the test substance.

Another data set addresses A2A(h) (Homo sapiens, UniProt P29274). Put plainly: Selectivity screen, radioligand displacement. Type of data set: binding. To be noted: read-out: % Inhib A2A(h).
Excerpt: as §2

A further data set has as its target CB2 (h) (Homo sapiens, UniProt P34972). Put plainly: Selectivity screen, radioligand displacement. It is filed as binding. To be noted: read-out: % Inhib CB2 (h).
Excerpt: as §2

For data set [3], the system named is Ca2+ channel (L, dihydropyridine). Put plainly: Selectivity screen, radioligand displacement. Type of data set: binding. To be noted: Compound 42 at 10 μM.
Excerpt: as §2

For the next data set, the target named is H1 (h) (Homo sapiens, UniProt P35367). Put plainly: Selectivity screen, radioligand displacement. Type of data set: binding.
Excerpt: as §2

The subject of another data set is NMDA. Put plainly: Selectivity screen, radioligand displacement. Type of data set: binding. To be noted: Compound 42 at 10 μM.
Excerpt: as §2

The target of a further data set is V1a (h) (Homo sapiens, UniProt P37288). Put plainly: Selectivity screen, radioligand displacement. It is filed as binding. To be noted: read-out: % Inhib V1a (h).
Excerpt: as §2

Another data set deals with acetylcholinesterase (h) (Homo sapiens, UniProt P22303). Put plainly: Selectivity screen, radioligand displacement. Type of data set: binding. To be noted: read-out: % Inhib acetylcholinesterase (h).
Excerpt: as §2

A further data set has as its target beta 2(h) (Homo sapiens, UniProt P07550). Put plainly: Selectivity screen, radioligand displacement. Type of data set: binding. To be noted: read-out: % Inhib beta 2(h).
Excerpt: as §2

The next data set deals with kappa (KOP) (Rattus norvegicus, UniProt P34975). Put plainly: Selectivity screen, radioligand displacement. Type of data set: binding. To be noted: read-out: % Inhib kappa (KOP).
Excerpt: as §2

Another data set concerns 5 major CYP enzymes. Put plainly: CYP inhibition assay (all 5 enzymes). It is filed as in vitro ADME. To be noted: 30 μM, in words.
The mark [4] stands for this setting: A549, 72 h, Table 6A, 72 hrs, read-out: A549 IC50.
[5] abbreviates: 72 h, Table 6A, 72 hrs, read-out: TOV-21G IC50.

SMILES strings stand for the structures. Where two headings read alike, the source gives them in different places. Some results are limits rather than exact numbers.

H1 (h), sequence (P35367 whole entry): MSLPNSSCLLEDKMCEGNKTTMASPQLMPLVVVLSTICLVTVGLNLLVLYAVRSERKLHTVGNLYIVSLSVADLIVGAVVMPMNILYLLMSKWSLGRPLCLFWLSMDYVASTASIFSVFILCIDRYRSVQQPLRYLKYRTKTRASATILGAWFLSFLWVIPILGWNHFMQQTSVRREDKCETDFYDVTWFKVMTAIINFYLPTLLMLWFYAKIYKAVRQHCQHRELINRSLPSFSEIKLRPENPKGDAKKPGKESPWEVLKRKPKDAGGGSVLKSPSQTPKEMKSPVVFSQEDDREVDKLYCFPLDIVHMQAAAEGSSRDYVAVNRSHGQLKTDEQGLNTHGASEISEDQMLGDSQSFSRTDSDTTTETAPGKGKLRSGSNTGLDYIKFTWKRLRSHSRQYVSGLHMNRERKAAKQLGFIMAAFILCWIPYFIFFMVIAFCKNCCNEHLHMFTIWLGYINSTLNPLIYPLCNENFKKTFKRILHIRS
A2A(h), sequence (P29274 whole entry): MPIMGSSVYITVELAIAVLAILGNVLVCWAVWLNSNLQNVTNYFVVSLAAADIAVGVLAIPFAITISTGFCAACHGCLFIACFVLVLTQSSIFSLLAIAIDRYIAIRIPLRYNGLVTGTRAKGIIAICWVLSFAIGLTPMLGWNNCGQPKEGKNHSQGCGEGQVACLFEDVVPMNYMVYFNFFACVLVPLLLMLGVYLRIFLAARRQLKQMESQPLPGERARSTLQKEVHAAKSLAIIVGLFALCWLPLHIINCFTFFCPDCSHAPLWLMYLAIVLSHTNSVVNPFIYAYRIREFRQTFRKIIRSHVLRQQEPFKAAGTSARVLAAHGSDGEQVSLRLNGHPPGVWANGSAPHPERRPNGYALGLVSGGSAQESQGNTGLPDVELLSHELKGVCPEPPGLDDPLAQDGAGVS
V1a (h), sequence (P37288 whole entry): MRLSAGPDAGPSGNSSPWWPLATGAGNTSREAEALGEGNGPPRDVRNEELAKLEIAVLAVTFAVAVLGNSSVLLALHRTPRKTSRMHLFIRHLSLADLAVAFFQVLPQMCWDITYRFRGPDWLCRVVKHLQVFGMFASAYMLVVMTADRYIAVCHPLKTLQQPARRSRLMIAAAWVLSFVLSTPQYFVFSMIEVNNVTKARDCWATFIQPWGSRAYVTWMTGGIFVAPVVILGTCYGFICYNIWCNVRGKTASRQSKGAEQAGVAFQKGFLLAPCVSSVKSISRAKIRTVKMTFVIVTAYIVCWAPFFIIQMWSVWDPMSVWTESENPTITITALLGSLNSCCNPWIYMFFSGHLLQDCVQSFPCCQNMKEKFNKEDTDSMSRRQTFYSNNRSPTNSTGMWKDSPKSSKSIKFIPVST
CB2 (h), sequence (P34972 whole entry): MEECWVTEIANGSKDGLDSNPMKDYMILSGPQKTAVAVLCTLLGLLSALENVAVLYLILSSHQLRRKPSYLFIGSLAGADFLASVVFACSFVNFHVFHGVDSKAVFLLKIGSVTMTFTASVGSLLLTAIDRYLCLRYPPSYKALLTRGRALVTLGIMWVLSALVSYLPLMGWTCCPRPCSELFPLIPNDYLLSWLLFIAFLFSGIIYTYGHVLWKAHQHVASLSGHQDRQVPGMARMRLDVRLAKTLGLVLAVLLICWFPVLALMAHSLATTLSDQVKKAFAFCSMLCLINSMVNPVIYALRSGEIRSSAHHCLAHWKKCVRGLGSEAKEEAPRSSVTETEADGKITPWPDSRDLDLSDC
acetylcholinesterase (h), sequence (P22303 32-614): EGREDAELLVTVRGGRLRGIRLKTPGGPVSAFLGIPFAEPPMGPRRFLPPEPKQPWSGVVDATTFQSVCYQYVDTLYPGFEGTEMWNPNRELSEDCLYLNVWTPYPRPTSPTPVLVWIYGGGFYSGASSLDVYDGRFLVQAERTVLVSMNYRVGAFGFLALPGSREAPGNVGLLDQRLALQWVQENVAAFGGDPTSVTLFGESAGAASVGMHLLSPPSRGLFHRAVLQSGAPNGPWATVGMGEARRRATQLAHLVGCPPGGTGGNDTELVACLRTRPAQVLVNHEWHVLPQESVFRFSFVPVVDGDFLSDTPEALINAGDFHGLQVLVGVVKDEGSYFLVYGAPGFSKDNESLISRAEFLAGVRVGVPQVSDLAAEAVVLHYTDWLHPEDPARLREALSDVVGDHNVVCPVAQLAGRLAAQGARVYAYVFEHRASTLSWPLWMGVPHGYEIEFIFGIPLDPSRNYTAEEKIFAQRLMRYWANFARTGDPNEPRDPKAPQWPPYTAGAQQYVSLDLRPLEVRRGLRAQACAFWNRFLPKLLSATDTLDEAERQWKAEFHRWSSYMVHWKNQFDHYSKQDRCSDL
5-HT transporter (h), sequence (P31645 whole entry): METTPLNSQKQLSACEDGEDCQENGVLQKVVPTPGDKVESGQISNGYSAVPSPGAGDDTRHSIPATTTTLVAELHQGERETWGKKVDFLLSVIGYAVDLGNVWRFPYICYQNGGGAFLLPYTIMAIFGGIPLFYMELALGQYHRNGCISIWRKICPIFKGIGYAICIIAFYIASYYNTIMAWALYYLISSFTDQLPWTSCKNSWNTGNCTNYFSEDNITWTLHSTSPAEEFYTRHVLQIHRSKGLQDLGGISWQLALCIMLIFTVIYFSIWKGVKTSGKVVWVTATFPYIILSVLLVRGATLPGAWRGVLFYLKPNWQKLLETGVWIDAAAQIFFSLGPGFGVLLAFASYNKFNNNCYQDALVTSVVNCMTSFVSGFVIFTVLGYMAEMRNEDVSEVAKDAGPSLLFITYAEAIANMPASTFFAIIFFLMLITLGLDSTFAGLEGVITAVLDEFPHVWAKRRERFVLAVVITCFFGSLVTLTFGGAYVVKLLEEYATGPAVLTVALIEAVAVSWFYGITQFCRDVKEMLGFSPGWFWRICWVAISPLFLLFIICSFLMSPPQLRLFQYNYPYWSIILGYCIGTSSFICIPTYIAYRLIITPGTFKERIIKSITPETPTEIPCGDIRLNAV
kappa (KOP), sequence (P34975 whole entry): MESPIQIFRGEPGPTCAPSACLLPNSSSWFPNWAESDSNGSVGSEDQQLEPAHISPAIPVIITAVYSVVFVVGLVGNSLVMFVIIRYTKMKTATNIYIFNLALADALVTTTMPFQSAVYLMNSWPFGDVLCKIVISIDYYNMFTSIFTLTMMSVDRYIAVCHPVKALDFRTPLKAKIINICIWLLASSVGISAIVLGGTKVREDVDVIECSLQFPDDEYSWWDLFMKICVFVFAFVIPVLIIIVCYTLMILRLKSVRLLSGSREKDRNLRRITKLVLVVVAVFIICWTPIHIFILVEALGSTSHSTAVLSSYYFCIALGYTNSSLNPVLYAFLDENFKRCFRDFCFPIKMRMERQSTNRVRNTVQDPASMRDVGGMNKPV
beta 2(h), sequence (P07550 whole entry): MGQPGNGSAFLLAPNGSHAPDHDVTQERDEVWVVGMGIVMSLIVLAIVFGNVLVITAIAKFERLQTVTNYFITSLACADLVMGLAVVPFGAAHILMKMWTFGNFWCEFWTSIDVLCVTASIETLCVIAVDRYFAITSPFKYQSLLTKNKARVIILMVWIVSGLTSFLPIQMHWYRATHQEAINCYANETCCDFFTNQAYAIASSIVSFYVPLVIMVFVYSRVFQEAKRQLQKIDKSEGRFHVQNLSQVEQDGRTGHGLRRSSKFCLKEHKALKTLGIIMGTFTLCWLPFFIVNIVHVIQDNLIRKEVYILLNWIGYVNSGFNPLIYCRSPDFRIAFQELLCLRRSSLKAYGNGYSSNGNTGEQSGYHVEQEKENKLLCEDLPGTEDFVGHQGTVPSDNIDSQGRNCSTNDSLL

For `Cc1ccccc1C(=O)Nc1nc(NC(=O)c2ccccc2C)n(-c2ccc(N3CCCCC3)cc2)n1` [Compound 44], in [1], the half-life at 1 μM amounted to 6 min. The IC50 was 2 µM in the data set with A549 (lung) (setting [4]), > 2500 nM in the data set with Calu-6 (lung), 2500 nM in the data set on LS-174T (colon) and 1.9 µM with TOV-21G (ovarian) (setting [5]).
For the compound `Cc1ccccc1C(=O)Nc1nc(NC(=O)c2ccccc2C)n(-c2ccc(C(F)(F)F)cc2)n1` [Compound 25], the half-life at 1 μM was 408 min in [1] and 71 min in data set [2]. The IC50 with A549 (lung) (setting [4]) was 0.04 µM; in the data set on Calu-6 (lung), 430 nM; in the data set on HCT-116 (colon) (HCT-116, 72 h, Table 6A, 72 hrs, read-out: HCT-116 IC50), 0.12 µM; in the data set on LS-174T (colon), < 200 nM; with TOV-21G (ovarian) (setting [5]), < 0.1 µM.
As for `Cc1ccccc1C(=O)Nc1nc(NC(=O)c2ccccc2C)n(-c2ccc(F)c(F)c2)n1` [Compound 24], the figures for the half-life at 1 μM in data set [1] and in data set [2] were 131 min and 204 min, respectively. The IC50 with A549 (lung) (setting [4]) turned out to be 0.28 µM; in the data set with Calu-6 (lung), 290 nM; in the data set on LS-174T (colon), 940 nM; with TOV-21G (ovarian) (setting [5]) it was 0.97 µM.
Regarding `Cc1cccc(-n2nc(NC(=O)c3ccccc3C)nc2NC(=O)c2ccccc2C)c1` [Compound 38], the half-life at 1 μM in [1] came out at 26 min. Also, the IC50 came out at 2.1 µM with A549 (lung) (setting [4]), 2600 nM in the data set on Calu-6 (lung), 2300 nM with LS-174T (colon) and 1.7 µM in the data set on TOV-21G (ovarian) (setting [5]).
For the compound `COc1ccccc1C(=O)Nc1nc(NC(=O)c2ccccc2OC)n(-c2ccccc2)n1` [Compound 23], the half-life at 1 μM in data set [1] stood at 21 min. For the same compound, the IC50 is > 2.5 µM in the data set with A549 (lung) (setting [4]), > 2500 nM in the data set with Calu-6 (lung), > 2500 nM in the data set on LS-174T (colon) and 2.4 µM in the data set on TOV-21G (ovarian) (setting [5]).
Usually EC50 stands for the midpoint of the concentration-response curve. As to `Cc1ccccc1C(=O)Nc1nc(NC(=O)c2ccccc2C)n(-c2ccc(OC(F)(F)F)cc2)n1` [Compound 42, N,N′-(1-(4-(trifluoromethoxy)phenyl)-1H-1,2,4-triazole-3,5-diyl)bis(2-methylbenzamide)], the values for the half-life at 1 μM in [1] and in [2] were 231 min and > 500 min, respectively. Also, the IC50 in the data set with A549 (lung) (A549, Table 6A, 72 hrs, read-out: A549 IC50) was 0.03 µM; in the data set with A549 (lung) (A549, Table 6C, data of FIG. 2, read-out: IC50 (μM) A549 (lung)), 65 µM; in the data set on Calu-6 (lung), 60 nM; in the data set on HCT-116 (colon) (HCT-116, Table 6A, 72 hrs, read-out: HCT-116 IC50) it was 0.07 µM; in the data set on HCT-116 (colon) (HCT-116, Table 6C, data of FIG. 2, read-out: IC50 (μM) HCT-116 (colon)) it was 0.08 µM; with HCT-116 (colon) (HCT-116, Table 6E, read-out: Proliferation IC50 (nM) CRC HCT-116), 0.087 µM. The IC50 in the data set on LS-174T (colon) was determined as 200 nM; with TOV-21G (ovarian) (Table 6A, 72 hrs, read-out: TOV-21G IC50) it was 0.25 µM; in the data set with TOV-21G (ovarian) (Table 6C, data of FIG. 2, read-out: IC50 (μM) TOV-21G (ovarian)), 0.15 µM; in the data set on TOV-21G (ovarian) (Table 6E, read-out: Proliferation IC50 (nM) Ovarian TOV21G) it was 0.109 µM. For the same compound, the EC50 in the data set on A549 (lung) (A549, Table 6D, another set of cell proliferation assay) was found to be 72 nM; in the data set with HCT-116 (colon) (HCT-116, Table 6D, another set of cell proliferation assay), 87 nM; with TOV-21G (ovarian) (Table 6D, another set of cell proliferation assay), 74 nM. The inhibition at 10 µM on 5-HT transporter (h) is 10%; at A2A(h), 7%; on CB2 (h), < 1%; on H1 (h), < 1%; on V1a (h), 5%; at acetylcholinesterase (h) it was 1%. In addition, the inhibition at 10 µM on beta 2(h) was determined as 9%; at kappa (KOP), 3%. The “% Inhib Ca2+ channel (L, dihydropyridine)” value in data set [3] is on record as 45%. The “% Inhib NMDA” value in the data set on NMDA is reported as 8%. Besides, the “CYP inhibition activity for the 5 major CYP enzymes” value with 5 major CYP enzymes is “no significant CYP inhibition activity”.
Turning to `Cc1ccc(C(=O)Nc2nc(NC(=O)c3ccc(C)cc3)n(-c3ccccc3)n2)cc1` [Compound 21], the half-life at 1 μM in data set [1] was 6 min. The IC50 in the data set on A549 (lung) (setting [4]) was 2.5 µM; in the data set with Calu-6 (lung), > 2500 nM; in the data set with LS-174T (colon), > 2500 nM; in the data set with TOV-21G (ovarian) (setting [5]) it was 2.5 µM.
On to `Cc1ccccc1C(=O)Nc1nc(NC(=O)c2ccccc2C)n(-c2cccc(F)c2)n1` [Compound 39], for which, in data set [1], the half-life at 1 μM amounted to 133 min. The IC50 with A549 (lung) (setting [4]) is 1.2 µM; with Calu-6 (lung), 2500 nM; in the data set with LS-174T (colon), 2100 nM; in the data set with TOV-21G (ovarian) (setting [5]), 1.5 µM.
For the compound `Cc1ccccc1C(=O)Nc1nc(NC(=O)c2ccccc2C)n(-c2cccc(Cl)c2)n1` [Compound 36], the half-life at 1 μM in data set [1] was 63 min; in data set [2], 147 min. In addition, the IC50 in the data set with A549 (lung) (setting [4]) is 0.22 µM; in the data set with Calu-6 (lung), 170 nM; with LS-174T (colon), 1300 nM; in the data set on TOV-21G (ovarian) (setting [5]), 0.3 µM.
Take `Cc1ccnc(-c2nc(NC(=O)c3ccccc3C)n(-c3ccccc3)n2)c1` [Compound 124]: in data set [1], the half-life at 1 μM was found to be 43 min. The values for the IC50 with A549 (lung) (setting [4]), in the data set on Calu-6 (lung) and with TOV-21G (ovarian) (setting [5]) were 1.2 µM, 1400 nM and 0.59 µM, respectively.
